Drawing on patent US8816135B2, “Trisphenol compound” (Honshu Chemical Industry Co., Ltd., priority 2009, dated 2014), this text covers Glass transition temperature, Solubility and melting point for 3 compounds.

A short description of data set [1]: Measurement of glass transition temperature by differential scanning calorimeter. The data set is classed as physicochemical. The note with it: DSC, melted compound cooled and heated again, 10.0° C./min. The procedure:
Each compound was heated to a temperature 20° C. higher than the melting point of the compound in crystal form using a differential scanning calorimeter, and the melted compound was cooled and then heated again to measure the glass transition point. The measurement conditions were 40° C. as the temperature at which to start measurement, the melting point+20° C. as the temperature at which to end measurement, and 10.0° C./min. as the rate of heating.
Background: Differential scanning calorimetry records heat flow against a reference as temperature is scanned.

Data set [2] in a line: Measurement of solubility in solvent (propyleneglycolmonomethylether acetate). The note with it: 28° C., largest amount that dissolved completely, added in 1 g steps to 10 g of solvent.
Procedure: As for solubility, 10 g of propyleneglycolmonomethylether acetate was put in a container and 1 g of trisphenol compound was added while keeping the temperature at 28° C., and the mixture was agitated for 10 minutes to check for complete dissolution of the compound. […] The solubility (amount in grams per 100 g of solvent) was calculated from the largest amount of compound in grams that dissolved completely.

Compound `CC(C)(c1ccc(O)cc1)c1ccc(C(C)(c2ccc(O)cc2)c2ccc(O)cc2)cc1` [Comparative Example, 1-[α-methyl-α-(4-hydroxyphenyl)ethyl]-4-[α,α-bis(4-hydroxyphenyl)ethyl]benzene, reference compound] had a Glass transition temperature in data set [1] of 96 °C.
In the case of `CC(c1ccc(O)cc1)(c1ccc(O)cc1)c1ccc(-c2ccc(O)cc2)cc1` [Example 1, 1-[4-(4-hydroxyphenyl)phenyl]-1,1-bis(4-hydroxyphenyl)ethane], the melting point was found to be 198 °C. Further, the Solubility in data set [2] is listed as 40 g/100 g of propyleneglycolmonomethylether acetate.
In the case of `Cc1cc(C(C)(c2ccc(-c3ccc(O)cc3)cc2)c2cc(C)c(O)c(C)c2)cc(C)c1O` [Example 3, 1-[4-(4-hydroxyphenyl)phenyl]-1,1-bis(4-hydroxy-3,5-dimethylphenyl)ethane], the melting point was 231 °C. The Solubility in data set [2] is listed as 10 g/100 g of propyleneglycolmonomethylether acetate. In data set [1], this compound had a Glass transition temperature of 104 °C.

The term melting point denotes the temperature of the solid-liquid transition.
